Source: ChEMBL document CHEMBL1142732, “In-depth study of tripeptide-based alpha-ketoheterocycles as inhibitors of thrombin. Effective utilization of the S1' subsite and its implications to structure-based drug design” (J Med Chem, 2005)

Columns and labels:
Homo sapiens = species on record: Homo sapiens; test: Inhibitory concentration against gel filtered platelet aggregation induced by alpha thrombin; format: functional
Cavia porcellus [1] = test: Percent change in blood pressure in guinea pig at 3 mg/kg dose
Prothrombin [2] = biological target: T1, Prothrombin (Homo sapiens, UniProt P00734); test: Inhibitory concentration against human alpha thrombin
Serine protease 1 = biological target: T2, Serine protease 1 (Bos taurus, UniProt P00760); test: Binding affinity against bovine trypsin
T2 sequence (P00760 whole entry): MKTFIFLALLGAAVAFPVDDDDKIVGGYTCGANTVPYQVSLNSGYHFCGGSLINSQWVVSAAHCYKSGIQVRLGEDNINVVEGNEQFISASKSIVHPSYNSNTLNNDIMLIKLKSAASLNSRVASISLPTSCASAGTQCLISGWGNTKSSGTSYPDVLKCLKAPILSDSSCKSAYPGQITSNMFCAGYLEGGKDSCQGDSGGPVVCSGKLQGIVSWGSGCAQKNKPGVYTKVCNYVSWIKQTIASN

Prothrombin [3] = biological target: T1, Prothrombin; test: Binding affinity determined against human alpha thrombin
Cavia porcellus [4] = test: Percent change in blood pressure in guinea pig at 10 mg/kg dose

Compound | IC50 (Prothrombin [2]) [nM] | Ki (Serine protease 1) [nM] | Ki (Prothrombin [3]) [nM] | IC50 (Homo sapiens) [nM] | Delta BP (Cavia porcellus [1]) [%] | Delta BP (Cavia porcellus [4]) [%]
CN[C@@H](C(=O)N1CCC[C@H]1C(=O)NC(CCCN=C(N)N)C(=O)c1nc2ccccc2s1)C1CCCCC1 (stereo partly drawn) | 5.3 | 1.2 |  | 17 | -21 | 
NC(N)=NCCCC(NC(=O)[C@@H]1CCCN1)C(=O)c1nc2ccccc2s1 (stereo partly drawn) |  | 250 |  |  |  | 
CN[C@H](Cc1ccccc1)C(=O)N1CCC[C@H]1C(=O)NC(CCCN=C(N)N)C(=O)c1nc2c(s1)CCCC2 (stereo partly drawn) | 80 | 4.4 | 3.4 | 22 |  | -70
CN[C@H](Cc1ccccc1)C(=O)N1CCC[C@H]1C(=O)N[C@H](C(=O)c1nc2ccccc2s1)[C@H]1CC[C@H](CN)CC1 | 17000 | 54 | 920 |  |  | 
CN[C@H](Cc1ccccc1)C(=O)N1CCC[C@H]1C(=O)N[C@@H](C[C@@H]1CCCN(C(=N)N)C1)C(=O)c1nc2ccccc2s1 | 51 | 8 | 1.6 |  |  | 
CN[C@H](Cc1ccccc1)C(=O)N1CCC[C@H]1C(=O)NC(CCCN=C(N)N)C(=O)c1nc2ccc(OC)cc2s1 (stereo partly drawn) |  | 2 |  |  | -44 | 
CNC1(C(=O)N2CCC[C@H]2C(=O)NC(CCCN=C(N)N)C(=O)c2nc3ccccc3s2)CCCCC1 (stereo partly drawn) | 490 | 2.6 | 73 |  |  | 
CC(=O)N1CCC[C@H]1C(=O)NC(CCCN=C(N)N)C(=O)c1nc2ccccc2s1 (stereo partly drawn) | 14000 |  |  |  |  | 
CN[C@H](Cc1ccccc1)C(=O)N1CCC[C@H]1C(=O)N[C@@H](CCCCN)C(=O)c1nc2ccccc2s1 | 650 | 4.3 | 38 |  | -45 | 
N=C(N)NCCCC(NC(=O)[C@@H]1CCCN1C(=O)[C@@H](CC1CCCCC1)NCC(=O)O)C(=O)c1nc2ccccc2s1 (stereo partly drawn) | 29 | 22 | 0.36 | 16 |  | -47
CNC(C(=O)N1CCC[C@H]1C(=O)NC(CCCN=C(N)N)C(=O)c1nc2ccccc2s1)(c1ccccc1)c1ccccc1 (stereo partly drawn) | 15 | 1.8 | 2.1 |  |  | 
N=C(N)NCCCC(NC(=O)[C@@H]1CCCN1C(=O)C(O)C1c2ccccc2-c2ccccc21)C(=O)c1nc2ccccc2s1 (stereo partly drawn) | 95 | 2 | 3.1 |  |  | -71
CN[C@H](Cc1ccccc1)C(=O)N1CCC[C@H]1C(=O)NC(CCCN=C(N)N)C(=O)c1nc2ccc3ccccc3c2s1 (stereo partly drawn) | 60 | 15 | 0.58 |  |  | -51
CCCC(CCC)C(=O)N[C@@H](CC(=O)OC)C(=O)N1CCC[C@H]1C(=O)N[C@@H](CCCNC(=N)N)C(=O)c1nc2ccccc2s1 | 56 | 16 | 1.4 | 16 |  | 
CN[C@H](Cc1ccccc1)C(=O)N1CCC[C@H]1C(=O)N[C@H](Cc1cccc(C(=N)N)c1)C(=O)c1nc2ccccc2s1 | 370 | 2600 | 15 |  |  | 
CN[C@H](CC1CCCCC1)C(=O)N1CCC[C@H]1C(=O)NC(CCCN=C(N)N)C(=O)c1nc2ccccc2s1 (stereo partly drawn) |  | 3.9 |  | 28 | -49 | 
CN[C@H](Cc1ccc(F)cc1)C(=O)N1CCC[C@H]1C(=O)NC(CCCN=C(N)N)C(=O)c1nc2ccccc2s1 (stereo partly drawn) | 15 | 3 | 0.12 |  |  | 

Second part, led by results:

IC50 (Prothrombin [2]) [nM] | Ki (Serine protease 1) [nM] | Ki (Prothrombin [3]) [nM] | Compound | IC50 (Homo sapiens) [nM] | Delta BP (Cavia porcellus [1]) [%] | Delta BP (Cavia porcellus [4]) [%]
112 | 6 | 9.1 | CN[C@H](Cc1ccccc1)C(=O)N1CCC[C@H]1C(=O)NC(CCCN=C(N)N)C(=O)c1nc(C(=O)O)cs1 (stereo partly drawn) |  |  | 
120 | 5.4 | 4.5 | CCOC(=O)c1csc(C(=O)C(CCCN=C(N)N)NC(=O)[C@@H]2CCCN2C(=O)[C@@H](Cc2ccccc2)NC)n1 (stereo partly drawn) |  |  | 
 | 1.5 |  | CN[C@H](Cc1ccccc1)C(=O)N1CCC[C@H]1C(=O)NC(CCCN=C(N)N)C(=O)c1nc2ccc(F)cc2s1 (stereo partly drawn) |  |  | 
13000 | 1300 | 2400 | CN[C@H](Cc1ccccc1)C(=O)N1CCC[C@H]1C(=O)NC(CCCN=C(N)N)C(=O)c1cc2ccccc2s1 (stereo partly drawn) |  |  | 
360 | 12 | 9.6 | CN[C@H](Cc1ccccc1)C(=O)N1CCC[C@H]1C(=O)NC(CCCN=C(N)N)C(=O)c1nc2ccccc2[nH]1 (stereo partly drawn) |  |  | 
21000 | 5300 | 2100 | CN[C@H](Cc1ccccc1)C(=O)N1CCC[C@H]1C(=O)N(C)[C@@H](CCCN=C(N)N)C(=O)c1nc2ccccc2s1 |  |  | 
106 | 8.3 | 15 | CN[C@H](Cc1ccccc1)C(=O)N1CCC[C@H]1C(=O)NC(CCCN=C(N)N)C(=O)c1nc2ccccc2c(=O)[nH]1 (stereo partly drawn) |  |  | 
830 | 5 | 120 | CN[C@H](Cc1ccccc1)C(=O)N1CCC[C@H]1C(=O)NC(CCCN=C(N)N)C(=O)c1nc(C(=O)NCCc2ccccc2)cs1 (stereo partly drawn) |  |  | 
 | 5.3 |  | CN[C@H](Cc1ccccc1)C(=O)N1CCC[C@H]1C(=O)NC(CCCN=C(N)N)C(=O)c1nc2ccc(CO)cc2s1 (stereo partly drawn) |  |  | 
